Laboratory results taken from patent US9315489B2, “Compounds and compositions for inhibiting the activity of ABL1, ABL2 and BCR-ABL1” (Novartis AG, priority 2012, dated 2016).

Target: ABL1 (64-515) (Homo sapiens (Human), UniProt P00519)
Assay: Radio ABL1 (64-515) assay (radiometric filter-binding)
Format: biochemical

Sequence of ABL1 (64-515) (P00519 64-515): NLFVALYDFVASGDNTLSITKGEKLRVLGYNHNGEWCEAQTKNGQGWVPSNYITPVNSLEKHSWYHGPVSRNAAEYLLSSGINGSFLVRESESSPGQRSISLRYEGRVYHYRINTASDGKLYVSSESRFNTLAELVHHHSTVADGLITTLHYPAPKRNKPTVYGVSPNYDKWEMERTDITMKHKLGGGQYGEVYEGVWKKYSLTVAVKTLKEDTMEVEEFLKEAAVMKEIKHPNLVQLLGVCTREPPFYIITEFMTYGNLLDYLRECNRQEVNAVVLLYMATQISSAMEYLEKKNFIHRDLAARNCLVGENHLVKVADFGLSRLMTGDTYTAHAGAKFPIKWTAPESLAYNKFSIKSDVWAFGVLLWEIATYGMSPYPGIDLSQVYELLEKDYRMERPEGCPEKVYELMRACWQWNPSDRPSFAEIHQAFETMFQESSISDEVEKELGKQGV

Structure (SMILES)	IC50
Nc1cnc(-c2cccc(C(=O)Nc3ccc(OC(F)(F)F)cc3)c2)cn1 [Example 4, 3-(5-Aminopyrazin-2-yl)-N-(4-(trifluoromethoxy)phenyl)benzamide]	7 nM
O=C(Nc1ccc(OC(F)(F)F)cc1)c1cccc(-n2ccnc2)c1 [Example 8, 3-(1H-Imidazol-1-yl)-N-(4-(trifluoromethoxy)phenyl)benzamide]	1.9 nM
O=C(Nc1ccc(OC(F)(F)F)cc1)c1ccc(Cl)c(-c2cncnc2)c1 [Example 24, 4-chloro-3-(pyrimidin-5-yl)-N-(4-(trifluoromethoxy)phenyl)benzamide]	< 3 nM
Cn1cc(-c2cc(C(=O)Nc3ccc(OC(F)(F)F)cc3)ccc2F)cn1 [Example 22, 4-fluoro-3-(1-methyl-1H-pyrazol-4-yl)-N-(4-(trifluoromethoxy)phenyl)benzamide]	35 nM
O=C(Nc1ccc(OC(F)(F)F)cc1)c1cccc(-c2cnccn2)c1 [Example 5, 3-(Pyrazin-2-yl)-N-(4-(trifluoromethoxy)phenyl)benzamide]	3.1 nM
COc1ccc(C(=O)Nc2ccc(OC(F)(F)F)cc2)cc1-c1ccc(F)nc1 [Example 32, 3-(6-fluoropyridin-3-yl)-4-methoxy-N-(4-(trifluoromethoxy)phenyl)benzamide]	3.4 nM
O=C(Nc1ccc(OC(F)(F)F)cc1)c1cccc(-c2ccc(CN3CCCC3)s2)c1 [Example 7, 3-(5-(Pyrrolidin-1-ylmethyl)thiophen-2-yl)-N-(4-(trifluoromethoxy)phenyl)benzamide]	< 3 nM
N#Cc1cncc(-c2cccc(C(=O)Nc3ccc(OC(F)(F)F)cc3)c2)c1 [Example 3, 3-(5-Cyanopyridin-3-yl)-N-(4-(trifluoromethoxy)phenyl)benzamide]	3.9 nM
O=C(Nc1ccc(OC(F)(F)F)cc1)c1ccc(Cl)c(-c2cccnc2)c1 [Example 26, 4-chloro-3-(pyridin-3-yl)-N-(4-(trifluoromethoxy)phenyl)benzamide]	13 nM
O=C(Nc1ccc(OC(F)(F)F)cc1)c1ccc(F)c(-c2cccnc2)c1 [Example 20, 4-fluoro-3-(pyridin-3-yl)-N-(4-(trifluoromethoxy)phenyl)benzamide]	13 nM

Next, values leading:

IC50	Structure (SMILES)
77 nM	O=C(Nc1ccc(OC(F)(F)F)cc1)c1cncc(-c2cccnc2O)c1 [Example 63, 2′-Hydroxy-N-(4-(trifluoromethoxy)phenyl)-[3,3′-bipyridine]-5-carboxamide]
13 nM	O=C(Nc1ccc(OC(F)(F)F)cc1)c1ccnc(-c2cncnc2)c1 [Example 70, 2-(Pyrimidin-5-yl)-N-(4-(trifluoromethoxy)phenyl)isonicotinamide]
69 nM	COc1ncccc1-c1cncc(C(=O)Nc2ccc(OC(F)(F)F)cc2)c1 [Example 62, 2′-Methoxy-N-(4-(trifluoromethoxy)phenyl)-[3,3′-bipyridine]-5-carboxamide]
4.2 nM	O=C(Nc1ccc(OC(F)(F)F)cc1)c1cnc(OCCNCCO)c(-c2cncnc2)c1 [Example 50, 6-(2-((2-Hydroxyethyl)amino)ethoxy)-5-(pyrimidin-5-yl)-N-(4-(trifluoromethoxy)phenyl)nicotinamide]
< 3 nM	COc1ncc(-c2cc(C(=O)Nc3ccc(OC(F)(F)F)cc3)ccn2)cn1 [Example 69, 2-(2-Methoxypyrimidin-5-yl)-N-(4-(trifluoromethoxy)phenyl)isonicotinamide]
660 nM	O=C(Nc1ccc(OC(F)(F)F)cc1)c1cncc(-c2cncnc2)n1 [Example 71, 6-(pyrimidin-5-yl)-N-(4-(trifluoromethoxy)phenyl)pyrazine-2-carboxamide]
< 3 nM	O=C(Nc1ccc(OC(F)(F)F)cc1)c1ccc(OCCO)c(-c2cncnc2)c1 [Example 38, 4-(2-Hydroxyethoxy)-3-(pyrimidin-5-yl)-N-(4-(trifluoromethoxy)phenyl)benzamide]
36 nM	O=C(Nc1ccc(OC(F)(F)F)cc1)c1cccc(-c2cncnc2)c1F [Example 60, 2-Fluoro-3-(pyrimidin-5-yl)-N-(4-(trifluoromethoxy)phenyl)benzamide]
